Experimental data from patent US8822517B2, “Arylosulfonamides for the treatment of CNS diseases” (Adamed SP. Z O.O., priority 2010, dated 2014).

Key:
[1] = target: serotoninergic 5-HT6 receptor (Homo sapiens, UniProt P50406); assay: Binding assay 5-HT6 (h), [3H]LSD, CHO cells; parameters: expressed in transfected cells; host or cells: CHO cells; conditions: read-out: 5-HT6
Summary of the method: (§1)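 Tested at 1×10^−6 M. Specific binding: total minus binding remaining with excess cold ligand. Detection: scintillation counting.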

dopaminergic D3 receptor = dopaminergic D3 receptor (Homo sapiens, UniProt P35462); assay: Binding assay D3 (h), [3H]methyl-spiperone, CHO cells; parameters: expressed in transfected cells; host or cells: CHO cells; conditions: read-out: D3 [%]
Summary of the method: as §1

[2] = target: serotoninergic 5-HT7 receptor (Homo sapiens, UniProt P34969); assay: Binding assay 5-HT7 (h), [3H]LSD, CHO cells; parameters: expressed in transfected cells; host or cells: CHO cells; conditions: read-out: 5-HT7
Summary of the method: as §1

adrenergic α1 receptor = assay: Binding assay α1 (non-selective), [3H]prazosin, rat cerebral cortex; conditions: percent inhibition of control specific binding; compounds tested at 1×10^−6 M
Summary of the method: as §1

[3] = target: T1, serotonine transporter (SERT) receptor (Homo sapiens, UniProt P31645); assay: Binding assay SERT (h), [3H]imipramine, CHO cells; conditions: read-out: SERT [%]
T1 construct: expressed in transfected cells; host or cells: CHO cells
Summary of the method: as §1

dopaminergic D2 receptor = dopaminergic D2 receptor (Homo sapiens, UniProt P14416); assay: Binding assay D2S (h), [3H]methyl-spiperone, HEK-293 cells; parameters: expressed in transfected cells; host or cells: HEK-293 cells; conditions: read-out: D2 [%]
Summary of the method: as §1

[4] = target: T2, serotoninergic 5-HT1A receptor (Homo sapiens, UniProt P08908); assay: Binding assay 5-HT1A (h), [3H]8-OH-DPAT, HEK-293 cells; parameters: expressed in transfected cells; host or cells: HEK-293 cells; conditions: read-out: 5-HT1A
T2 sequence (P08908 1-422): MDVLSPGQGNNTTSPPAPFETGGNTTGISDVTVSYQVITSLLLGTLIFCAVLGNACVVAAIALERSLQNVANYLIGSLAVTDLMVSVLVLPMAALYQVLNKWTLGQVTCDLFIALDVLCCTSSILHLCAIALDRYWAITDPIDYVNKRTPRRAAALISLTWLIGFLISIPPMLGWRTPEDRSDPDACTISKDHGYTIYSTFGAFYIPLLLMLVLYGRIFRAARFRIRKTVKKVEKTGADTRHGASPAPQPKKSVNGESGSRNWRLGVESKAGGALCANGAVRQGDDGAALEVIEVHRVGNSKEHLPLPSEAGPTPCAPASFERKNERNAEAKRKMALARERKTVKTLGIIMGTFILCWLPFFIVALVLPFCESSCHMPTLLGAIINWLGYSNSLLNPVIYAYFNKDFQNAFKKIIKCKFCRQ
Summary of the method: as §1

[5] = target: serotoninergic 5-HT2A receptor (Homo sapiens, UniProt P28223); assay: Binding assay 5-HT2A (h), [3H]ketanserin, HEK-293 cells; parameters: expressed in transfected cells; host or cells: HEK-293 cells; conditions: read-out: 5-HT2A
Summary of the method: as §1

Sequence of serotoninergic 5-HT7 receptor (P34969 whole entry): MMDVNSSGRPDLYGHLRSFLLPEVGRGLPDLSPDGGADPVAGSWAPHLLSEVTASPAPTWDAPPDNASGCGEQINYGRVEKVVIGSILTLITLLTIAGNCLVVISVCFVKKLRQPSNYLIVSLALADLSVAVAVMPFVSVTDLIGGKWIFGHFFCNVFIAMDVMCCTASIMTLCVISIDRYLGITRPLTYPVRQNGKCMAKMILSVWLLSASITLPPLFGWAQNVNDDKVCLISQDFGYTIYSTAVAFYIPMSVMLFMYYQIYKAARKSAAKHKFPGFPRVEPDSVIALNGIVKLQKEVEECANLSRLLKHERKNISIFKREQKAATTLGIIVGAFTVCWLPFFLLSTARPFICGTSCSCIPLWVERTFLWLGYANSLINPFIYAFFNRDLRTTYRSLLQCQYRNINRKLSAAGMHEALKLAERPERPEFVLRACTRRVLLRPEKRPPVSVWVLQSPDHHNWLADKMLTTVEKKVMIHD
T1 sequence (P31645 whole entry): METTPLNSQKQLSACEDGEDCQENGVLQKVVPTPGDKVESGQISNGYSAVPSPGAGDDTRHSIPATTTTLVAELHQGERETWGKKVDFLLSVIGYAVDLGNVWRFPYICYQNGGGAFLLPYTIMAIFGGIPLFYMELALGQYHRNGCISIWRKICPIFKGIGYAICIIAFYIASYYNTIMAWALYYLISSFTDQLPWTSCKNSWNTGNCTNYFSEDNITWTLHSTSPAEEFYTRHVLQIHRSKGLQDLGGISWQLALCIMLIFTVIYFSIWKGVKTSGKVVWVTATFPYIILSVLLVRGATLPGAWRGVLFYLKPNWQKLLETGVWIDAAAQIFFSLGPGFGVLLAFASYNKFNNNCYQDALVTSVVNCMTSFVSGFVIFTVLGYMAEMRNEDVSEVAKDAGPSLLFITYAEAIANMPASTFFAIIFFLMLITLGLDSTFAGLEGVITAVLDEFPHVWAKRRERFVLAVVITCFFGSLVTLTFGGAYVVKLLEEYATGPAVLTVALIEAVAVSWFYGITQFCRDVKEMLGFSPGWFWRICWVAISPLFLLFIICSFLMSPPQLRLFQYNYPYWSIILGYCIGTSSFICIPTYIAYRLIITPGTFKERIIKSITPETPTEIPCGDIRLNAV
Sequence of serotoninergic 5-HT2A receptor (P28223 whole entry): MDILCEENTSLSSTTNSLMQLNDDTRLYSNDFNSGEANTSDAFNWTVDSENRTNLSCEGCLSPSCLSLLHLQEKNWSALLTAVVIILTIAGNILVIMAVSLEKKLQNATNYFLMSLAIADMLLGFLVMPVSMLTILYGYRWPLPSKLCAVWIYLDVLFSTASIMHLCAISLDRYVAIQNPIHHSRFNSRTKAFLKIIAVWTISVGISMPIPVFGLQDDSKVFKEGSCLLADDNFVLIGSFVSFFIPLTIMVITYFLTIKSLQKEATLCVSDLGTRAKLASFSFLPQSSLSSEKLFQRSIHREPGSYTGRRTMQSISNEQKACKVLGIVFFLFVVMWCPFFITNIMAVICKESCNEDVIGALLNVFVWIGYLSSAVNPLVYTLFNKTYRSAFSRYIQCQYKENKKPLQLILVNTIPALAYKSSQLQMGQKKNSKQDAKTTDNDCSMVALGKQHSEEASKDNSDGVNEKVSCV
Sequence of dopaminergic D2 receptor (P14416 1-414 isoform P14416-2): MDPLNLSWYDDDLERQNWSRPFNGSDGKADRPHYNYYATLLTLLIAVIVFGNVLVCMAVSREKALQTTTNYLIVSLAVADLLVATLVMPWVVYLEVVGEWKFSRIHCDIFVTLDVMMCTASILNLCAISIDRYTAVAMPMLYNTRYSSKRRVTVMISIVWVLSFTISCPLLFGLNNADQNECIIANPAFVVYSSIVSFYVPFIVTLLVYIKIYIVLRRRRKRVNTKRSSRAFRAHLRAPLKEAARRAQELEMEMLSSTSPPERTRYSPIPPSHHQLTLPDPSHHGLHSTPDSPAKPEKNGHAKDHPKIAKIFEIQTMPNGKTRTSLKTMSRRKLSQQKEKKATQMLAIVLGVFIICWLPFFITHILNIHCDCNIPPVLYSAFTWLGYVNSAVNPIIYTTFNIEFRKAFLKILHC
Sequence of serotoninergic 5-HT6 receptor (P50406 whole entry): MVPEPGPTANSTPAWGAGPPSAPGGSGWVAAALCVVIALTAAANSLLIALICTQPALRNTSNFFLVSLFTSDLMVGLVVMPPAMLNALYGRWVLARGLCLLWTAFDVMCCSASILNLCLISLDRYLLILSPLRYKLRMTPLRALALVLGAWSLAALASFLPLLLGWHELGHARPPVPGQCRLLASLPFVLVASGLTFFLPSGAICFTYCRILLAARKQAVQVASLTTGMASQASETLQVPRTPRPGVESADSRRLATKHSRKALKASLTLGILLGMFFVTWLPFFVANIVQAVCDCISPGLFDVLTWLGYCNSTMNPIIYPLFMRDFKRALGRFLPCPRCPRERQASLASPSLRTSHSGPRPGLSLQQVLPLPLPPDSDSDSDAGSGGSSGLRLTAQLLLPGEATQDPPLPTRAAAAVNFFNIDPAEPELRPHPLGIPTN
Sequence of dopaminergic D3 receptor (P35462 whole entry): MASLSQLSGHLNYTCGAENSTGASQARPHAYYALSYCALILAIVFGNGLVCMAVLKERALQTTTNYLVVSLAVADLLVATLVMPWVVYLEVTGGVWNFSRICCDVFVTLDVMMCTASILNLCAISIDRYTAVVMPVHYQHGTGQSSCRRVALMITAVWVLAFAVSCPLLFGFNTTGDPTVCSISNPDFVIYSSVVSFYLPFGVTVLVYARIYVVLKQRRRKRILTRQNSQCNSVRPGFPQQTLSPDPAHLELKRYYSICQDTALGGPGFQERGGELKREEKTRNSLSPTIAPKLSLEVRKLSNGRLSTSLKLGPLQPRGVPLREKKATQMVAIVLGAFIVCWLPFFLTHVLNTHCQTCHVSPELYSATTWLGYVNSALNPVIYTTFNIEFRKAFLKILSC

Compound | inhibition at 1 µM [1] [%] | inhibition at 1 µM (dopaminergic D3 receptor) [%] | inhibition at 1 µM [2] [%] | α1 [%] (adrenergic α1 receptor) | inhibition at 1 µM [3] [%] | inhibition at 1 µM (dopaminergic D2 receptor) [%] | inhibition at 1 µM [4] [%] | inhibition at 1 µM [5] [%]
O=S(=O)(NCCCCN1CCC(c2noc3cc(F)ccc23)CC1)c1ccc(Cl)c(Cl)c1 [Compound 297, 3,4-Dichloro-N-[4-[4-(6-fluoro-1,2-benzoxazol-3-yl)piperidin-1-yl]butyl]benzenesulphonamide] | 87 | 100 | 88 | 100 | 23 | 93 | 31 | 95
O=S(=O)(NCCCCN1CCC(c2noc3cc(F)ccc23)CC1)c1ccc(F)c(Cl)c1 [Compound 299, 3-Chloro-4-fluoro-N-[4-[4-(6-fluoro-1,2-benzoxazol-3-yl)piperidin-1-yl]butyl]benzenesulphonamide] | 84 | 98 | 75 | 98 | 14 | 87 | 45 | 89
O=S(=O)(NCCCCN1CCC(c2noc3cc(F)ccc23)CC1)c1ccc(C(F)(F)F)cc1 [Compound 302, N-[4-[4-(6-Fluoro-1,2-benzoxazol-3-yl)piperidin-1-yl]butyl]-4-(trifluoromethyl)benzenesulphonamide] | 72 | 99 | 101 | 100 | 19 | 90 | 50 | 95
O=S(=O)(NCCCCN1CCC(c2noc3cc(F)ccc23)CC1)c1cccc(C(F)(F)F)c1 [Compound 303, N-[4-[4-(6-Fluoro-1,2-benzoxazol-3-yl)piperidin-1-yl]butyl]-3-(trifluoromethyl)-benzenesulphonamide] | 90 | 97 | 98 | 97 | 9 | 108 | 35 | 96
O=S(=O)(NCCCCN1CCC(c2noc3cc(F)ccc23)CC1)c1ccc(OC(F)(F)F)cc1 [Compound 304, N-[4-[4-(6-Fluoro-1,2-benzoxazol-3-yl)piperidin-1-yl]butyl]-4-(trifluoromethoxy)-benzenesulphonamide] | 78 | 87 | 93 | 101 | 4 | 94 | 60 | 76
N#Cc1ccc(S(=O)(=O)NCCCCN2CCC(c3noc4cc(F)ccc34)CC2)cc1 [Compound 305, 4-Cyano-N-[4-[4-(6-fluoro-1,2-benzoxazol-3-yl)piperidin-1-yl]butyl]benzenesulphonamide] | 78 | 103 | 85 | 99 | -18 | 88 | 58 | 96
N#Cc1cccc(S(=O)(=O)NCCCCN2CCC(c3noc4cc(F)ccc34)CC2)c1 [Compound 306, 3-Cyano-N-[4-[4-(6-fluoro-1,2-benzoxazol-3-yl)piperidin-1-yl]butyl]benzenesulphonamide] | 81 | 99 | 89 | 99 | -10 | 106 | 44 | 97
O=S(=O)(NCCCCN1CCC(c2noc3cc(F)ccc23)CC1)c1ccsc1 [Compound 307, N-[4-[4-(6-Fluoro-1,2-benzoxazol-3-yl)piperidin-1-yl]butyl]thiophene-3-sulphonamide] | 76 | 95 | 85 | 105 | -3 | 88 | 73 | 99
Cc1cc(S(=O)(=O)NCCCCN2CCC(c3noc4cc(F)ccc34)CC2)c(C)s1 [Compound 309, N-[4-[4-(6-Fluoro-1,2-benzoxazol-3-yl)piperidin-1-yl]butyl]-2,5-dimethyl-thiophene-3-sulphonamide] | 79 | 90 | 87 | 103 | -5 | 84 | 64 | 88
Cn1ccc2c(S(=O)(=O)NCCCCN3CCC(c4noc5cc(F)ccc45)CC3)cccc21 [Compound 310, N-[4-[4-(6-Fluoro-1,2-benzoxazol-3-yl)piperidin-1-yl]butyl]-1-methyl-indole-4-sulphonamide] | 89 | 97 | 89 | 107 | 57 | 96 | 91 | 99
Cn1ccc2ccc(S(=O)(=O)NCCCCN3CCC(c4noc5cc(F)ccc45)CC3)cc21 [Compound 311, N-[4-[4-(6-Fluoro-1,2-benzoxazol-3-yl)piperidin-1-yl]butyl]-1-methyl-indole-6-sulphonamide] | 99 | 101 | 95 | 107 | 34 | 105 | 49 | 105
O=S(=O)(NCCCCN1CCC(c2noc3cc(F)ccc23)CC1)c1ccc2c(c1)CCO2 [Compound 317, N-[4-[4-(6-Fluoro-1,2-benzoxazol-3-yl)piperidin-1-yl]butyl]-2,3-dihydrobenzofuran-5-sulphonamide] | 78 | 97 | 89 | 99 | -17 | 105 | 45 | 98
O=S(=O)(NCCCCN1CCC(c2noc3cc(F)ccc23)CC1)c1cccc2scnc12 [Compound 318, N-[4-[4-(6-Fluoro-1,2-benzoxazol-3-yl)piperidin-1-yl]butyl]-1,3-benzothiazole-4-sulphonamide] | 76 | 95 | 92 | 98 | 45 | 67 | 96 | 89
O=S(=O)(NCCCCN1CCC(c2noc3cc(F)ccc23)CC1)c1ccc2cn[nH]c2c1 [Compound 319, N-[4-[4-(6-Fluoro-1,2-benzoxazol-3-yl)piperidin-1-yl]butyl]-1H-indazole-6-sulphonamide] | 87 | 90 | 90 | 94 | 8 | 109 | 55 | 88
O=S(=O)(NCCCCN1CCC(c2noc3cc(F)ccc23)CC1)c1cnc2ccccn12 [Compound 322, N-[4-[4-(6-Fluoro-1,2-benzoxazol-3-yl)piperidin-1-yl]butyl]imidazo[1,2-a]pyridine-3-sulphonamide] | 62 | 93 | 95 | 103 | 16 | 96 | 43 | 94
O=S(=O)(NCCCCN1CCC(c2noc3cc(F)ccc23)CC1)c1c[nH]c2ncccc12 [Compound 323, N-[4-[4-(6-Fluoro-1,2-benzoxazol-3-yl)piperidin-1-yl]butyl]-1H-pyrrolo[2,3-b]pyridine-3-sulphonamide] | 92 | 96 | 93 | 103 | 41 | 105 | 45 | 96
O=C1Cc2cc(S(=O)(=O)NCCCCN3CCC(c4noc5cc(F)ccc45)CC3)ccc2N1 [Compound 324, N-[4-[4-(6-Fluoro-1,2-benzoxazol-3-yl)piperidin-1-yl]butyl]-2-oxo-indoline-5-sulphonamide] | 78 | 103 | 78 | 103 | 37 | 105 | 56 | 104
